The test system of assay [1] is Escherichia coli (strain JM109). As to the kind of experiment: MIC determination against Escherichia coli (Andrews protocol). Type of assay: cell-based. The note with it: Escherichia coli, read-out: MIC E. coli. The method, then:
(§1) Minimum Inhibitory Concentrations (MICs) for the compounds prepared were determined against Escherichia coli (strain JM109) and Staphylococcus aureus (strain 9518) using the protocols described by Andrews (J. Antimicrob. Chemother., 2001, 48, Suppl. S1, 5-16).

For assay [2], the system named is Staphylococcus aureus (strain 9518). Briefly: MIC determination against Staphylococcus aureus (Andrews protocol). It counts as cell-based. The note with it: Staphylococcus aureus, read-out: MIC S. aureus. The method, then: as §1
Setting [3] is: Staphylococcus aureus strain 9518.

These results are taken from patent US20170342025A1, “ANTIMICROBIAL COMPOUNDS, COMPOSITIONS AND METHODS” (Swansea University, priority 2014, published 2017).

Like-named read-outs stand apart in the source and are kept apart here.

As a reminder, the MIC is the lowest concentration found to suppress growth. On to `Cl.N=C(N)N1CCc2c(cccc2OCc2cccc(Cl)c2Cl)C1` [Compound 38, 5-[(2,3-dichlorophenyl)methoxy]-1,2,3,4-tetrahydroisoquinoline-2-carboximidamide hydrochloride], for which the MIC in assay [1] (Escherichia coli strain JM109) and in assay [2] (setting [3]) was 10 to 32 µg/mL throughout.

Turning to `Cl.N=C(N)N/N=C/c1cccc(OCc2cccc(Cl)c2)c1` [Compound 49e, (E)-Amino(2-(3-((3-chlorobenzyl)oxy)benzylidene)hydrazinyl)methaniminium chloride], the MIC in assay [1] (Escherichia coli strain JM109) was 1 to 10 µg/mL; in assay [2] (setting [3]), 10 to 32 µg/mL.

`Cl.N=C(N)N/N=C/c1nccn1Cc1cccc(Cl)c1` [Compound 61a, (E)-amino(2-((1-(3-chlorobenzyl)-1H-imidazol-2-yl)methylene)hydrazinyl) methaniminium chloride]: the MIC in assay [1] (Escherichia coli strain JM109) and in assay [2] (setting [3]) was 32 to 100 µg/mL each time.

As to `N=C(N)NCc1ccc(NC(=O)c2ccccc2)cc1.O=C(O)C(F)(F)F` [Compound 57b, Amino((4-benzamidobenzyl)amino)methaniminium 2,2,2-trifluoroacetate], the MIC in assay [1] and in assay [2] was 32 to 100 µg/mL in each case.

As to `N=C(N)N1CCc2ccc(Br)cc2C1.O=C(O)C(F)(F)F` [Compound 26, 7-bromo-1,2,3,4-tetrahydroisoquinoline-2-carboximidamid 2,2,2-trifluoroacetate], the MIC in assay [1] (Escherichia coli strain JM109) and in assay [2] (setting [3]) was > 100 µg/mL in each case.

Take `N=C(N)NC(=O)c1cccc(OCc2ccccc2)c1.O=C(O)C(F)(F)F` [Compound 47, 3-(benzyloxy)-N-carbamimidoylbenzamide 2,2,2-trifluoroacetate]: the MIC fell in the range of 32 to 100 µg/mL in assay [1] and 10 to 32 µg/mL in assay [2].

As to `N=C(N)NCc1ccc(NS(=O)(=O)c2cccc(Cl)c2)cc1.O=C(O)C(F)(F)F` [Compound 55a, Amino((4-((3-chlorophenyl)sulfonamido)benzyl)amino)methaniminium 2,2,2-trifluoroacetate], the MIC in assay [1] (Escherichia coli strain JM109) and in assay [2] (setting [3]) was 32 to 100 µg/mL in each case.

Turning to `N=C(N)NCc1cccc(NS(=O)(=O)c2ccc(Cl)cc2)c1.O=C(O)C(F)(F)F` [Compound 55f, Amino((3-((4-chlorophenyl)sulfonamido)benzyl)amino)methaniminium 2,2,2-trifluoroacetate], the MIC in assay [1] (Escherichia coli strain JM109) and in assay [2] (setting [3]) was 32 to 100 µg/mL throughout.

Turning to `N=C(N)NCc1cccc(OCc2cccc(Cl)c2)c1.O=C(O)C(F)(F)F` [Compound 4c, 1-({3-[(3-chlorophenyl)methoxy]phenyl}methyl)guanidine 2,2,2-trifluoroacetate], the MIC in assay [1] and in assay [2] was 10 to 32 µg/mL throughout.

`N=C(N)NOCc1cccc(-c2ccccc2)c1.O=C(O)C(F)(F)F` [Compound 41a, 1-[(3-phenylphenyl)methoxy]guanidine 2,2,2-trifluoroacetate]: the MIC in assay [1] (Escherichia coli strain JM109) and in assay [2] (setting [3]) was > 100 µg/mL in each case.

Turning to `N=C(N)NCc1ccc(NS(=O)(=O)c2cccc(Cl)c2Cl)cc1.O=C(O)C(F)(F)F` [Compound 55c, Amino((4-((2,3-dichlorophenyl)sulfonamido)benzyl)amino)methaniminium 2,2,2-trifluoroacetate], the MIC in assay [1] (Escherichia coli strain JM109) and in assay [2] (setting [3]) was 32 to 100 µg/mL each time.

On to `Cl.N=C(N)N/N=C/c1nccn1Cc1cccc(C(F)(F)F)c1` [Compound 61c, (E)-Amino(2-((1-(3-(trifluoromethyl)benzyl)-1H-imidazol-2-yl)methylene) hydrazinyl)methaniminium chloride], for which the MIC in assay [1] (Escherichia coli strain JM109) and in assay [2] (setting [3]) was 32 to 100 µg/mL each time.

As for `N=C(N)NCc1cccc(OCc2ccc(Cl)cc2Cl)c1.O=C(O)C(F)(F)F` [Compound 4d, 1-({3-[(2,4-dichlorophenyl)methoxy]phenyl}methyl)guanidine 2,2,2-trifluoroacetate], the minimal inhibitory concentration (MIC) in assay [1] was 1 to 10 µg/mL; in assay [2], > 100 µg/mL.

In the case of `Cl.N=C(N)N/N=C/c1cccn1Cc1ccc(Cl)cc1` [Compound 61f, (E)-Amino(2-((1-(4-chlorobenzyl)-1H-pyrrol-2-yl)methylene)hydrazinyl) methaniminium chloride], the MIC fell in the range of 32 to 100 µg/mL in assay [1] (Escherichia coli strain JM109) and 10 to 32 µg/mL in assay [2] (setting [3]).

As to `N=C(N)NCc1c(F)ccc(OCc2cccc(C(F)(F)F)c2)c1F.O=C(O)C(F)(F)F` [Compound 4p, 1-[(2,6-difluoro-3-{[3-(trifluoromethyl)phenyl]methoxy}phenyl)methyl]guanidine 2,2,2-trifluoroacetate], the MIC in assay [1] and in assay [2] was 1 to 10 µg/mL each time.

On to `CC(C)(C)OC(=O)NC(=N)N1CCc2ccc(-c3ccc(C(C)(C)C)cc3)cc2C1.O=C(O)C(F)(F)F` [Compound 28, tert-butyl N-[7-(4-tert-butylphenyl)-1,2,3,4-tetrahydroisoquinoline-2-carboximidoyl]carbamate 2,2,2-trifluoroacetate], for which the MIC in assay [1] (Escherichia coli strain JM109) was > 100 µg/mL; in assay [2] (setting [3]), 32 to 100 µg/mL.

Turning to `CN(Cc1cccc(OCc2cccc(Cl)c2Cl)c1)C(=N)N.Cl` [Compound 10a, 1-({3-[(2,3-dichlorophenyl)methoxy]phenyl}methyl)-1-methylguanidine hydrochloride], the MIC in assay [1] (Escherichia coli strain JM109) was in the range of 32 to 100 µg/mL; in assay [2] (setting [3]) it was 10 to 32 µg/mL.

On to `N=C(N)NCc1cccc(OCc2ccc(Cl)cc2)c1.O=C(O)C(F)(F)F` [Compound 4b, 1-({3-[(4-chlorophenyl)methoxy]phenyl}methyl)guanidine 2,2,2-trifluoroacetate], for which the MIC in assay [1] and in assay [2] was 1 to 10 µg/mL each time.

With `N=C(N)NCc1ccc(OCc2ccc(Cl)cc2)cc1.O=C(O)C(F)(F)F` [Compound 19b, 1-(4-((4-chlorobenzyl)oxy)benzyl)guanidine 2,2,2-trifluoroacetate], the MIC was > 100 µg/mL in assay [1] (Escherichia coli strain JM109) and 32 to 100 µg/mL in assay [2] (setting [3]).

Regarding `CNC(=N)NCc1cccc(OCc2cccc(Cl)c2Cl)c1.O=C(O)C(F)(F)F` [Compound 15, 3-({3-[(2,3-dichlorophenyl)methoxy]phenyl}methyl)-1-methylguanidine 2,2,2-trifluoroacetate], the MIC in assay [1] (Escherichia coli strain JM109) and in assay [2] (setting [3]) was 10 to 32 µg/mL each time.

As to `N=C(N)NCc1cccc(OCc2ccc(C(F)(F)F)cc2)c1.O=C(O)C(F)(F)F` [Compound 4h, 1-[(3-{[4-(trifluoromethyl)phenyl]methoxy}phenyl)methyl]guanidine 2,2,2-trifluoroacetate], the MIC in assay [1] and in assay [2] was 1 to 10 µg/mL each time.

For the molecule `N=C(N)N1CCc2ccc(OCc3cccc(Cl)c3Cl)cc2C1.O=C(O)C(F)(F)F` [Compound 33, 7-[(2,3-dichlorophenyl)methoxy]-1,2,3,4-tetrahydroisoquinoline-2-carboximidamide 2,2,2-trifluoroacetate], the minimum inhibitory concentration (MIC) in assay [1] (Escherichia coli strain JM109) and in assay [2] (setting [3]) was 1 to 10 µg/mL throughout.

Take `N=C(N)NCc1cccc(OCc2ccc(Br)cc2)c1.O=C(O)C(F)(F)F` [Compound 4j, 1-({3-[(4-bromophenyl)methoxy]phenyl}methyl)guanidine 2,2,2-trifluoroacetate]: the minimal inhibitory concentration (MIC) in assay [1] is 1 to 10 µg/mL; in assay [2], 10 to 32 µg/mL.

Take `N=C(N)NCc1ccc(OCc2ccc(Cl)c(Cl)c2)cc1.O=C(O)C(F)(F)F` [Compound 19d, 1-(4-((3,4-dichlorobenzyl)oxy)benzyl)guanidine 2,2,2-trifluoroacetate]: the MIC in assay [1] (Escherichia coli strain JM109) was in the range of 10 to 32 µg/mL; in assay [2] (setting [3]), 1 to 10 µg/mL.
